Source: the METLIN SMRT retention time set (Domingo-Almenara et al. 2019)

Assay: gradient 5% acetonitrile 3 min, to 50% in 2 min, to 85% in 15 min, held 3 min, 100 µL/min
Settings: column: Zorbax Extend-C18 2.1 x 50 mm; eluents: water / acetonitrile, 0.1% formic acid
In short: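 Mixtures of ~100 pure standards were chromatographed on a Zorbax Extend-C18 column (2.1 × 50 mm, 1.8 μm) at 100 μL/min using water and acetonitrile, each with 0.1% formic acid. Detection used a quadrupole time-of-flight mass spectrometer in positive and negative ionization mode, and data collection spanned 3 months. Retention time was obtained from adduct peaks picked computationally and each checked manually.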

| RP-LC retention time [s] | SMILES |
| --- | --- |
| 917 | Cc1ccccc1C(=O)Nc1nnc(SCc2nnc(-c3ccccc3)o2)s1 |
| 619 | c1ccc2c(CC3=NCCN3)cccc2c1 |
| 607 | O=C(NCc1ccc(F)cc1)C1CCN(c2cc(N3CCOCC3)ncn2)CC1 |
| 570 | CC1CCCCN1CCNC(=O)C1CCCN(c2cnc3nccnc3c2)C1 (stereo unspecified) |
| 1050 | O=C1[C@H]2CN(Cc3ccccc3OC(F)(F)F)C[C@H]2C(=O)N1Cc1ccc2c(c1)OCO2 |
| 805 | O=C(C1CCCN(c2nc3ccccc3n3cccc23)C1)N1CCN(c2ccc(F)cc2)CC1 (stereo unspecified) |
| 915 | Cc1nc(-c2ccc3c(c2)n(CC(=O)NCCC2=CCCCC2)c(=O)n3C(C)C)no1 |
| 816 | CS(=O)(=O)N1CCCC(C(=O)NC2CC2)CCNC(=O)CC1 (stereo unspecified) |
| 711 | Cc1noc(C2(NC(=O)c3ccc(C(F)(F)F)cc3)CCCCC2)n1 |
| 922 | CCOc1ccc(NS(=O)(=O)c2ccc(-c3nnc(C4CCC4)o3)o2)cc1 |
| 621 | CN(C)c1ccc(N2CCC(C(=O)NCCc3c[nH]c4ccccc34)CC2)nn1 |
| 614 | COc1ccc(NC(=O)CSc2nnc(CNC(=O)c3cccs3)o2)c(OC)c1 |
| 602 | O=C(CN(CC1CCCO1)C(=O)c1cccc(Br)c1)N1CCNCC1 (stereo unspecified) |
| 1190 | CCc1nc2cc(-c3noc(-c4ccc(Br)o4)n3)ccc2o1 |
| 867 | O=C(NC1CCCC1)c1cn(-c2cc(-c3nc(C4CC4)no3)ccn2)cn1 |
| 760 | CCc1ccc(NC(=O)C2CCN(C(=O)C3Sc4ccccc4NC3=O)CC2)cc1 (stereo unspecified) |
| 850 | Cc1nn(C)c(C)c1S(=O)(=O)N1CCO[C@@H](COc2ccccn2)[C@@H]1c1ccccc1 |
| 802 | CCCCc1nnc(NC(=O)C2CC(=O)N(CCc3c[nH]c4ccc(C)cc34)C2)s1 (stereo unspecified) |

| RP-LC retention time [s] | SMILES |
| --- | --- |
| 756 | CCc1nc(OCC(=O)N(C)c2ccccc2)c2ccccc2n1 |
| 905 | Cc1ccc(CNC(=O)c2ccc(-c3ccsc3)nc2)cc1 |
| 912 | CCCn1cc(S(=O)(=O)NCc2ccccc2Cl)c2cccnc21 |
| 852 | Cc1cc(-c2ccc(S(=O)(=O)N3CCC(C(=O)NC4CCCCCC4)CC3)o2)n[nH]1 |
| 1100 | COc1ccc(N2CCN(C(=O)C3CCCN(c4nc5ccccc5nc4OC)C3)CC2)cc1 (stereo unspecified) |
| 816 | O=C(NCc1ccc(F)cc1F)C1CCN(c2nnc(-c3ccccc3)o2)CC1 |
| 881 | COc1ccccc1-c1csc(NC(=O)Cc2csc(C)n2)n1 |
| 855 | CCCCS(=O)(=O)c1cc2c(cc1NC(=O)Cc1cccc(F)c1)n(C)c(=O)n2C |
| 777 | Cc1cccc(CN2C[C@@H]3C(=O)N(CCc4ccccc4)C(=O)[C@@H]3C2)c1 |
| 656 | Cc1ccc(NC(=O)Cn2cnc3nc(-c4cccnc4)ncc3c2=O)cc1F |
| 791 | O=C(O)c1cc2cc(F)ccc2[nH]1 |
| 722 | CCN(CC)C(=O)c1ccc(-c2nc3cc(NS(=O)(=O)c4ccc(F)c(C)c4)ccc3n2C)cc1 |
| 570 | O=C(Cc1cn2cc(Br)ccc2n1)N1CCSCC1 |
| 657 | COc1ccc(CCNC(=O)C2CC(=O)N(c3n[nH]c4ccccc34)C2)cc1OC (stereo unspecified) |
| 728 | Cn1nc(C(=O)N2CCCCC2)c2c1CCN(C(=O)CCC(=O)NC1CCCCCC1)C2 |
| 618 | O=C(CCc1ccc2nc(-c3ccccc3)[nH]c2c1)NC1CCCC1 |
| 816 | CN1C(=O)c2cc(C(=O)NCCc3ccccc3Cl)nn2CC1(C)C(=O)NCc1ccccc1 (stereo unspecified) |

| SMILES | RP-LC retention time [s] |
| --- | --- |
| CC(=O)C1CC[C@H]2[C@@H]3CC[C@@H]4CC(=O)CC[C@]4(C)[C@H]3CC[C@]12C (stereo partly specified) | 1050 |
